Experimental findings from ChEMBL document CHEMBL4020784, “Syntheses of prodrug-type phosphotriester oligonucleotides responsive to intracellular reducing environment for improvement of cell membrane permeability and nuclease resistance” (Bioorg Med Chem Lett, 2017) are described below.

Series [1] can be described thus: Metabolic stability in 10% fetal bovine serum assessed as compound remaining at 37 degC by RP-HPLC method. It is filed as ADME, cell-free, Bos taurus. To be noted: cattle.
Series [2] can be described thus: Chemical stability in CD3CN up to 7 days by 31P NMR method. The note with it: read-out: Stability. It counts as physicochemical.

The half-life is the time in which the quantity being followed falls by half.

Take `Cc1cn([C@H]2C[C@H](OP(=O)(O)OC[C@H]3O[C@@H](n4cc(C)c(=O)[nH]c4=O)C[C@@H]3OP(=O)(O)OC[C@H]3O[C@@H](n4cc(C)c(=O)[nH]c4=O)C[C@@H]3OP(=O)(O)OC[C@H]3O[C@@H](n4cc(C)c(=O)[nH]c4=O)C[C@@H]3OP(=O)(O)OC[C@H]3O[C@@H](n4cc(C)c(=O)[nH]c4=O)C[C@@H]3OP(=O)(O)OC[C@H]3O[C@@H](n4cc(C)c(=O)[nH]c4=O)C[C@@H]3OP(=O)(O)OC[C@H]3O[C@@H](n4cc(C)c(=O)[nH]c4=O)C[C@@H]3OP(=O)(O)OC[C@H]3O[C@@H](n4cc(C)c(=O)[nH]c4=O)C[C@@H]3OP(=O)(O)OC[C@H]3O[C@@H](n4cc(C)c(=O)[nH]c4=O)C[C@@H]3OP(=O)(O)OC[C@H]3O[C@@H](n4cc(C)c(=O)[nH]c4=O)C[C@@H]3O)[C@@H](CO)O2)c(=O)[nH]c1=O`: the half-life in series [1] was below 1.5 h.
For `Cc1cn([C@H]2C[C@H](OP(=O)(O)OC[C@H]3O[C@@H](n4cc(C)c(=O)[nH]c4=O)C[C@@H]3OP(=O)(O)OC[C@H]3O[C@@H](n4cc(C)c(=O)[nH]c4=O)C[C@@H]3OP(=O)(O)OC[C@H]3O[C@@H](n4cc(C)c(=O)[nH]c4=O)C[C@@H]3OP(=O)(O)OC[C@H]3O[C@@H](n4cc(C)c(=O)[nH]c4=O)C[C@@H]3OP(=O)(O)OC[C@H]3O[C@@H](n4cc(C)c(=O)[nH]c4=O)C[C@@H]3OP(=O)(O)OC[C@H]3O[C@@H](n4cc(C)c(=O)[nH]c4=O)C[C@@H]3OP(=O)(O)OC[C@H]3O[C@@H](n4cc(C)c(=O)[nH]c4=O)C[C@@H]3OP(=O)(O)OC[C@H]3O[C@@H](n4cc(C)c(=O)[nH]c4=O)C[C@@H]3OP(=O)(OC[C@H]3O[C@@H](n4cc(C)c(=O)[nH]c4=O)C[C@@H]3O)O[C@@H]3CSSC[C@H]3OCc3ccccc3)[C@@H](CO)O2)c(=O)[nH]c1=O` (stereo partly drawn), the half-life in series [1] was above 23.3 h.
`COc1ccc(C(OC[C@H]2O[C@@H](n3cc(C)c(=O)[nH]c3=O)C[C@@H]2OP(OC2CSSCC2OCc2ccccc2)N(C(C)C)C(C)C)(c2ccccc2)c2ccc(OC)cc2)cc1` (stereo partly drawn): the remaining at 168 h in series [2] stood at 95%.
